Two molecules from paper PMC9784018, “Rational Strategy for Designing Peptidomimetic Small Molecules Based on Cyclic Peptides Targeting Protein–Protein Interaction between CTLA-4 and B7-1” (Pharmaceuticals, 2022) can be followed below.

The IC50 is the concentration at which inhibition is half-maximal.

Positions of bridges follow the written chain, without caps; N, C: chain ends. Residues, ends and D or L forms follow the SMILES beside them.

Data set [1] in a line: Solubility of synthesized peptide. The class given is physicochemical. Conditions: chemically synthesized peptide, in inhibitor screening assay. Here is the method:
(§1) We prepared the C4m-3127 cyclic peptide using chemical synthesis and examined its properties. First, the inhibitory activity was tested using a kit (CTLA-4:B7-1[Biotinylated] Inhibitor Screening Assay, BPS Bioscience Inc.) (Figure 5A). […] In a sequence of C4m-3127, the GG linker behind C-terminal Cys had mutated into Glu and Arg.

Data set [2] has as its target T1, interaction between CTLA-4 and B7-1 (Homo sapiens, UniProt P16410).
T1 construct: purchased BPS Bioscience Inc
T1 sequence (P16410 36-161 limits assumed): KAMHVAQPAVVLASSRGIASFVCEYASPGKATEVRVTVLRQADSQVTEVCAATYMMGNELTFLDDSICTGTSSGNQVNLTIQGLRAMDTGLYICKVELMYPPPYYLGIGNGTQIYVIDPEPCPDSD
Put plainly: CTLA-4:B7-1[Biotinylated] Inhibitor Screening Assay (BPS Bioscience kit). The class given is binding. As for the experimental part:
as §1
A cyclic peptide with a low EC50 value was synthesized by adding glycine to the N-terminus at Toray Research Center.
(B) Flow cytometry affinity analysis.

Another data set deals with T2, CTLA-4 (Homo sapiens, UniProt P16410).
T2 sequence (P16410 36-223): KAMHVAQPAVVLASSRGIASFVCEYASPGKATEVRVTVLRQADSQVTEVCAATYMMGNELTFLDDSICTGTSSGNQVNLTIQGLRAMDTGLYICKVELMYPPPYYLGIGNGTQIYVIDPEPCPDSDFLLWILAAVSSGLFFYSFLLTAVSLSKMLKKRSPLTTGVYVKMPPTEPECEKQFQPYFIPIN
Description: Competitive ELISA against biotinylated C4m-3127 peptide. The settings on record: competition with 30 μM biotinylated C4m-3127 peptide on immobilized CTLA-4; data not shown. The class given is binding. Here is the method:
Competition experiments were performed using biotinylated C4m-3127 peptide instead of biotinylated B7-1 in the CTLA-4:B7-1[Biotinylated] inhibitor screening assay. The biotinylated C4m-3127 peptide was optimized to a concentration of 30 μM in an earlier experiment. CTLA-4 immobilized on a 384-well plate was reacted with PGF00506 in 11-point two-fold serial dilution from 1000 to 0.98 μM by assay buffer. Then, the biotinylated peptides were added to wells for competitive reaction. After washing, the residual amounts of biotinylated peptides were detected using streptavidin-HRP.
For orientation: In an ELISA, binding on a coated surface is turned into a signal by an enzyme label.

Turning to `CC[C@H](C)[C@@H]1NC(=O)[C@@H]2CCCN2C(=O)[C@H](CC(C)C)NC(=O)[C@H](Cc2ccccc2)NC(=O)[C@@H]2CCCN2C(=O)[C@H](Cc2c[nH]cn2)NC(=O)[C@H](CCSC)NC(=O)[C@@H](NC(=O)CN)CSSC[C@@H](C(=O)N[C@@H](CCC(=O)O)C(=O)N[C@@H](CCCNC(=N)N)C(=O)O)NC(=O)[C@H](Cc2ccccc2)NC(=O)[C@H](Cc2c[nH]cn2)NC(=O)[C@H](Cc2c[nH]cn2)NC(=O)[C@H](CO)NC(=O)[C@H](C(C)C)NC1=O` [C4m-3127 peptide] (H-GCMHPFLPIVSHHFCER-OH; disulfide 2-15; N-terminus and C-terminus assumed), in data set [1], the solubility result was “improved solubility”.
Turning to `N=C(N)NCCC[C@H]1C(=O)N(CCC(c2ccccc2)c2ccccc2)C[C@@H]2N(C(=O)OCc3ccccc3)O[C@H](CC3CCCCC3)C(=O)N21` [PGF00506, Benzyl (3R,6S,9aS)-3-(cyclohexylmethyl)-8-(3,3-diphenylpropyl)-6-(3-guanidinopropyl)-4,7-dioxohexahydropyrazino [2,1-c][1,2,4]oxadiazine-1(6H)-carboxylate], the 50% inhibitory concentration (IC50) in data set [2] (inhibition of CTLA-4:B7-1 interaction, luminescence, four-parameter logistic fit, read-out: IC50) was determined as 6.8 µM; at CTLA-4, 10.5 µM. The “inhibitory activity compared to PGF00432” value in data set [2] (ratio of IC50 values) was 43 fold. Also, the “inhibitory activity compared to C4m-3127” value in data set [2] (ratio of IC50 values, C4m-3127 synthetic peptide IC50 = 11.5 μM) was determined as 1.7 fold.
